Measured values reported in patent publication US9187467B2, “2-phenyl benzothiazole linked imidazole compounds as potential anticancer agents and process for the preparation thereof” (Council of Scientific and Industrial Research, priority 2012, dated 2015).

Legend:
SR = test: SRB anticancer assay, leukemia; assay type: cell-based, human; settings: Homo sapiens, 48 h
K562 (Leukemia) cells = test: Cell cycle distribution by flow cytometry; assay type: cell-based
Description: (§1) In order to investigate the mechanism underlying the anti-proliferative effect of the compounds the cell cycle distribution was analyzed in K562 (Leukemia) and MCF-7 (Breast carcinoma) cell lines by flow cytometry. Compounds CA-4, 21a, 21d, 4c, 6d, 6e, 6f, 7d, 7h and 7j have shown 1.72%, 14%, 12%, 14%, 12%, 14%, 14%, 16%, 16% &12% in K562 cells and 49.63%, 21%, 20%, 18%, 21%, 21%, 21%, 24%, 23% and 23% in MCF-7 cell line respectively. […] Thus compound 7d was considered for further studies (FIG. 1).

IGROV1 = test: SRB anticancer assay, ovarian; assay type: cell-based, human; settings: Homo sapiens, IGROV-1; IGROV1, 48 h
[1] = tested on: Ovarian cancer cell lines; test: SRB anticancer assay, panel result; assay type: cell-based, human
In short: (§2)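 Cells from a sixty-line human panel were treated continuously for 48 h at no fewer than five concentrations separated by 10-fold dilutions. Growth was then estimated with an SRB protein assay, and dose–response curves were built per cell line.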

Colon cancer cell lines = test: SRB anticancer assay, panel result; assay type: cell-based, human
In short: as §2

[2] = tested on: Melanoma cancer cell lines; test: SRB anticancer assay, panel result; assay type: cell-based, human
In short: as §2

Renal cancer cell lines = test: SRB anticancer assay, panel result; assay type: cell-based, human
In short: as §2

[3] = tested on: Prostate cancer cell lines; test: SRB anticancer assay, panel result; assay type: cell-based, human
In short: as §2

[4] = tested on: Non-small cell lung cancer cell lines; test: SRB anticancer assay, panel result; assay type: cell-based, human
In short: as §2

Breast cancer cell lines = test: SRB anticancer assay, panel result; assay type: cell-based, human
In short: as §2

[5] = tested on: MCF-7 (Breast carcinoma) cells; test: Cell cycle distribution by flow cytometry (FACS); assay type: cell-based; settings: MCF-7 cells, 2 μM, 24h
Description: FIG. 1 represents FACS analysis of cell cycle distribution of MCF-7 cells after treatment with compounds CA-4, 21a, 21d, 4c, 6d, 6e, 6f, 7d, 7h and 7j at 2 μM concentration for 24h and control cells are the cells treated with DMSO (0.25%).
as §1

NCI-H226 = test: SRB anticancer assay, non-small lung; assay type: cell-based, human; settings: Homo sapiens, NCI-H226, 48 h
NCI-H23 = test: SRB anticancer assay, non-small lung; assay type: cell-based, human
SN12C = test: SRB anticancer assay, renal; assay type: cell-based, human; parameters: Log10GI50: unit not given here
OVCAR-3 = test: SRB anticancer assay, ovarian; assay type: cell-based, human; parameters: Log10GI50: unit not given here
NCI/ADR-RES = test: SRB anticancer assay, ovarian; assay type: cell-based, human; parameters: Log10GI50: unit not given here; settings: for Log10GI50: present compounds
T-47D = test: SRB anticancer assay, breast; assay type: cell-based; settings: Homo sapiens, T47D, 48 h
HCT-116 = test: SRB anticancer assay, colon; assay type: cell-based, human; settings: Homo sapiens, HCT-116, 48 h
HL-60 (TB) = test: SRB anticancer assay, leukemia; assay type: cell-based, human; parameters: Log10GI50: unit not given here
U251 = test: SRB anticancer assay, CNS; assay type: cell-based, human; parameters: Log10GI50: unit not given here; settings: U251; present compounds
OVCAR-4 = test: SRB anticancer assay, ovarian; assay type: cell-based, human; settings: Homo sapiens, OVCAR-4, 48 h
A498 = test: SRB anticancer assay, renal; assay type: cell-based, human; parameters: Log10GI50: unit not given here
SNB-75 = test: SRB anticancer assay, CNS; assay type: cell-based, human; parameters: Log10GI50: unit not given here
UO-31 = test: SRB anticancer assay, renal; assay type: cell-based, human; parameters: Log10GI50: unit not given here
NCI-H460 = test: SRB anticancer assay, non-small lung; assay type: cell-based, human; settings: Homo sapiens, NCI-H460, 48 h

COc1cc(-c2cncn2-c2ccc(-c3nc4ccc(F)cc4s3)cc2)ccc1F [Compound 4c, 6-Fluoro-2-(4-(5-(4-fluoro-3-methoxyphenyl)-1H-imidazol-1-yl)phenyl)benzo[d]thiazole]
GI50 (SR): 4.99 µM
cells in G2/M phase (K562 (Leukemia) cells): 14%
GI50 (IGROV1): 15.4 µM
LC50 ([1]; Homo sapiens, Ovarian panel, 50% net cell death, read-out: mean graph midpoint value (MG_MID) of Log10 LC50 (converted)): > 100 µM
GI50 ([1]; Homo sapiens, seven ovarian cancer cell lines, exposure at least 48 h, read-out: GI50, range over the panel): 5.71 to 30.6 µM
mean graph midpoint value (MG_MID) of Log10 GI50 ([1]; Ovarian panel): −4.62 mol/L
mean graph midpoint value (MG_MID) of log10 TGI ([1]; Ovarian panel, total inhibition of net cell growth): −4.11
mean graph midpoint value (MG_MID) of Log10 GI50 (Colon cancer cell lines; Colon panel): −4.71 log10(mol/L)
mean graph midpoint value (MG_MID) of log10 TGI (Colon cancer cell lines; Colon panel, total inhibition of net cell growth): −4.06
LC50 (Colon cancer cell lines; Homo sapiens, Colon panel, 50% net cell death, read-out: mean graph midpoint value (MG_MID) of Log10 LC50 (converted)): > 100 µM
GI50 (Colon cancer cell lines; Homo sapiens, seven colon cancer cell lines, exposure at least 48 h, read-out: GI50, range over the panel): 4.36 to 82.3 µM
LC50 ([2]; Homo sapiens, Melanoma panel, 50% net cell death, read-out: mean graph midpoint value (MG_MID) of Log10 LC50 (converted)): > 100 µM
GI50 ([2]; Homo sapiens, nine melanoma cancer cell lines, exposure at least 48 h, read-out: GI50, range over the panel): 4.11 to 39.7 µM
mean graph midpoint value (MG_MID) of Log10 GI50 ([2]; Melanoma panel): −4.82 log10(mol/L)
mean graph midpoint value (MG_MID) of log10 TGI ([2]; Melanoma panel, total inhibition of net cell growth): >−4.0
CC50 (Renal cancer cell lines; Homo sapiens, Renal panel, 50% net cell death, read-out: mean graph midpoint value (MG_MID) of Log10 LC50 (converted)): 95.5 µM
GI50 (Renal cancer cell lines; Homo sapiens, eight renal cancer cell lines, exposure at least 48 h, read-out: GI50, range over the panel): 0.0432 to 38.8 µM
mean graph midpoint value (MG_MID) of Log10 GI50 (Renal cancer cell lines; Renal panel): −4.98 log10(mol/L)
mean graph midpoint value (MG_MID) of log10 TGI (Renal cancer cell lines; Renal panel, total inhibition of net cell growth): −4.11
LC50 ([3]; Homo sapiens, Prostate panel, 50% net cell death, read-out: mean graph midpoint value (MG_MID) of Log10 LC50 (converted)): > 100 µM
GI50 ([3]; Homo sapiens, two prostate cancer cell lines (PC-3, DU-145), exposure at least 48 h, read-out: GI50, range over the panel): 3.47 to 14.3 µM
mean graph midpoint value (MG_MID) of Log10 GI50 ([3]; Prostate panel): −5.16 mol/L
mean graph midpoint value (MG_MID) of log10 TGI ([3]; Prostate panel, total inhibition of net cell growth): −4.06
LC50 ([4]; Homo sapiens, Non-small cell lung panel, 50% net cell death, read-out: mean graph midpoint value (MG_MID) of Log10 LC50 (converted)): 93.3 µM
GI50 ([4]; Homo sapiens, nine Non-small cell lung cancer cell lines, exposure at least 48 h, read-out: GI50, range over the panel): 5.47 to 49.3 µM
mean graph midpoint value (MG_MID) of Log10 GI50 ([4]; Non-small cell lung panel): −4.83 log10(M)
mean graph midpoint value (MG_MID) of Log10 GI50 (Breast cancer cell lines; Breast panel): −4.82 mol/L
mean graph midpoint value (MG_MID) of log10 TGI (Breast cancer cell lines; Breast panel, total inhibition of net cell growth): −4.02
CC50 (Breast cancer cell lines; Homo sapiens, Breast panel, 50% net cell death, read-out: mean graph midpoint value (MG_MID) of Log10 LC50 (converted)): > 100 µM
GI50 (Breast cancer cell lines; Homo sapiens, six breast cancer cell lines, exposure at least 48 h, read-out: GI50, range over the panel): 7.98 to 32.2 µM
cells in G2/M phase [5]: 18%
GI50 (NCI-H226): 49.3 µM
GI50 (NCI-H23; Homo sapiens, NCI-H23, 48 h): 8.25 µM
Log10GI50 (NCI-H23; NCI-H23, present compounds): −5.08 log10(M)
GI50 (SN12C; Homo sapiens, 48 h): 31.9 µM
Log10GI50 (SN12C; present compounds): −4.50
GI50 (OVCAR-3; Homo sapiens, OVCAR-3, 48 h): 5.71 µM
Log10GI50 (OVCAR-3; OVCAR-3, present compounds): −5.24
GI50 (NCI/ADR-RES; Homo sapiens, NCI/ADR-RES, 48 h): 30.6 µM
Log10GI50 (NCI/ADR-RES; NCI/ADR-RES (row head NCI/ADR-)): −4.51
Log10GI50 (NCI/ADR-RES; listed as head printed RES (second line of NCI/ADR-RES)): >−4.0
GI50 (T-47D): 11.1 µM
GI50 (HCT-116): 4.36 µM
Log10GI50 (HL-60 (TB); HL-60(TB), present compounds): −5.60
GI50 (HL-60 (TB); Homo sapiens, HL-60, 48 h): 2.5 µM
Log10GI50 (U251): −4.90
GI50 (OVCAR-4): 11.4 µM
Log10GI50 (A498; A498, present compounds): −7.36
GI50 (A498; Homo sapiens, A498, 48 h): 0.0432 µM
GI50 (SNB-75; Homo sapiens, SNB-75, 48 h): 12.6 µM
Log10GI50 (SNB-75; SNB-75, present compounds): −4.69
GI50 (UO-31; Homo sapiens, UO-31, 48 h): 16.5 µM
Log10GI50 (UO-31; UO-31, present compounds): −4.78
GI50 (NCI-H460): 5.7 µM
